Key:
[1] = Selectivity index, ratio of CC50 for cytotoxicity against human MT4 cells to EC50 of Anti-HIV activity against HIV-1 IIIB infected in human MT4; format: toxicity, cell-based; conditions: read-out: Selectivity Index
[2] = Resistance fold, ratio of EC50 for HIV1 harboring reverse transcriptase F227L/V106A double mutant […] to EC50 for wild type HIV1 […]; format: functional
[3] = test system: Human immunodeficiency virus 1; test: Antiviral activity against HIV1 harboring reverse transcriptase K103N/Y181C double mutant infected in human MT4 cells assessed as protection against virus-induced cytopathic effect incubated for 5 days by MTT assay; format: functional, organism-based; conditions: Human immunodeficiency virus 1, MT4, 120 h
[4] = test system: Human immunodeficiency virus 1; test: Antiviral activity against HIV1 harboring reverse transcriptase Y188L mutant infected in human MT4 cells assessed as protection against virus-induced cytopathic effect incubated for 5 days by MTT assay; format: functional, organism-based; conditions: Human immunodeficiency virus 1, MT4, 120 h
[5] = test system: Human immunodeficiency virus 1; test: Antiviral activity against HIV1 harboring reverse transcriptase F227L/V106A mutant infected in human MT4 cells assessed as protection against virus-induced cytopathic effect incubated for 5 days by MTT assay; format: functional, organism-based; conditions: Human immunodeficiency virus 1, MT4, 120 h
[6] = test system: Human immunodeficiency virus 1; test: Antiviral activity against HIV1 harboring reverse transcriptase E138K mutant infected in human MT4 cells assessed as protection against virus-induced cytopathic effect incubated for 5 days by MTT assay; format: functional, organism-based; conditions: Human immunodeficiency virus 1, MT4, 120 h
[7] = Cytotoxicity against human MT4 cells assessed as reduction in cell viability incubated for 5 days by MTT assay; format: cell-based; conditions: human, MT4 cells; time 5 day
[8] = Resistance fold, ratio of EC50 for HIV1 harboring reverse transcriptase L100I mutant […] to EC50 for wild type HIV1 […]; format: functional
[9] = test system: Human immunodeficiency virus 1; test: Antiviral activity against HIV1 harboring reverse transcriptase Y181C mutant infected in human MT4 cells assessed as protection against virus-induced cytopathic effect incubated for 5 days by MTT assay; format: functional, organism-based; conditions: Human immunodeficiency virus 1, MT4, 120 h
[10] = Resistance fold, ratio of EC50 for HIV1 harboring reverse transcriptase K103N/Y181C double mutant […] to EC50 for wild type HIV1 […]; format: functional
[11] = Resistance fold, ratio of EC50 for HIV1 harboring reverse transcriptase E138K mutant […] to EC50 for wild type HIV1 […]; format: functional
[12] = test system: Human immunodeficiency virus 1; test: Antiviral activity against HIV1 harboring reverse transcriptase K103N mutant infected in human MT4 cells assessed as protection against virus-induced cytopathic effect incubated for 5 days by MTT assay; format: functional, organism-based; conditions: Human immunodeficiency virus 1, MT4, 120 h
[13] = Resistance fold, ratio of EC50 for HIV1 harboring reverse transcriptase Y188L mutant […] to EC50 for wild type HIV1 […]; format: functional
[14] = Resistance fold, ratio of EC50 for HIV1 harboring reverse transcriptase Y181C mutant […] to EC50 for wild type HIV1 […]; format: functional
[15] = test system: Human immunodeficiency virus 2; test: Anti-HIV activity against HIV2 ROD infected in human MT4 cells assessed as reduction in virus-induced cytopathic effect incubated for 5 days by MTT assay; format: functional, organism-based; conditions: Human immunodeficiency virus 2, ROD, MT4, 120 h
[16] = molecular target: Human immunodeficiency virus type 1 reverse transcriptase (Human immunodeficiency virus 1, UniProt Q72547); test: Inhibition of wild type HIV1 reverse transcriptase using oligo(dT)16 as primer measured after 40 mins by picogreen-dye based spectrofluorimetric analysis
[17] = test system: Human immunodeficiency virus 1; test: Anti-HIV activity against HIV-1 IIIB infected in human MT4 cells assessed as reduction in virus-induced cytopathic effect incubated for 5 days by MTT assay; format: functional, organism-based; conditions: Human immunodeficiency virus 1, IIIB, MT4, 120 h
[18] = test system: Human immunodeficiency virus 1; test: Antiviral activity against HIV1 harboring reverse transcriptase L100I mutant infected in human MT4 cells assessed as protection against virus-induced cytopathic effect incubated for 5 days by MTT assay; format: functional, organism-based; conditions: Human immunodeficiency virus 1, MT4, 120 h
[19] = Resistance fold, ratio of EC50 for HIV1 harboring reverse transcriptase K103N mutant […] to EC50 for wild type HIV1 […]; format: functional

| Structure (SMILES) | selectivity ratio [1] | Ratio EC50 [2] | EC50 [3] [µM] | EC50 [4] [µM] | EC50 [5] [µM] | EC50 [6] [nM] | CC50 at 120 h [7] [µM] | Ratio EC50 [8] | EC50 [9] [nM] | Ratio EC50 [10] | Ratio EC50 [11] | EC50 [12] [nM] | Ratio EC50 [13] | Ratio EC50 [14] | EC50 [15] [mM] | IC50 [16] [nM] | EC50 [17] [nM] | EC50 [18] [nM] | Ratio EC50 [19] | further results |
| --- | --- | --- | --- | --- | --- | --- | --- | --- | --- | --- | --- | --- | --- | --- | --- | --- | --- | --- | --- | --- |
| COc1cc2cc(C#N)ccc2c(OC)c1Oc1cc(NCCC2=CCCCC2)nc(Nc2ccc(C#N)cc2)n1 | > 688 | 494 | 30 | 148 | 164 | 530 | > 125 | 50 | 4650 | 90 | 5 | 180 | 445 | 11 | > 1 | 280 | 330 | 16600 | 1 |  |
| COc1cc2cc(C#N)ccc2c(OC)c1Oc1cc(N2CCOCC2)nc(Nc2ccc(C#N)cc2)n1 | > 6510 | >26525 | 23.9 | 2.34 |  | 51 | > 125 | 14 | 290 | 634 | 1 | 130 | 62 | 8 | > 1 | 250 | 38 | 520 | 3 | IC50 [5]: > 1 mM |
| CCCCCC(C)Nc1cc(Oc2c(OC)cc3cc(C#N)ccc3c2OC)nc(Nc2ccc(C#N)cc2)n1 (stereo not drawn) | > 151 | >649 | > 1000 | > 1000 | > 1000 | 2220 | > 125 | 102 | 40000 | >649 | 1 | 1330 | >650 | 26 | > 1 | 1200 | 1540 | 157000 | 1 |  |
| COc1cc2cc(C#N)ccc2c(OC)c1Oc1cc(NC2CCC2)nc(Nc2ccc(C#N)cc2)n1 | > 7040 | 3981 | 3.13 | 2.47 | 145 | 84 | > 125 | 28 | 330 | 86 | 5 |  | 68 | 9 | > 1 | 110 | 37 | 1020 | 1 | IC50 [12]: 44 nM |
| COc1cc2cc(C#N)ccc2c(OC)c1Oc1cc(NCC2CC2)nc(Nc2ccc(C#N)cc2)n1 | > 10500 | 3026 | 1.37 | 1.42 | 74.4 | 59 | > 125 | 39 |  | 56 | 5 | 31 | 58 | 9 | 0.213 | 90 | 25 | 960 | 1 | IC50 [9]: 210 nM |
| CCCC(CCC)Nc1cc(Oc2c(OC)cc3cc(C#N)ccc3c2OC)nc(Nc2ccc(C#N)cc2)n1 | > 330 | >1416 | > 1000 | > 1000 | > 1000 | 1590 | > 125 | 181 | 26400 | >1416 | 2 | 360 | >1416 | 37 | > 1 | 610 | 710 | 128000 | 1 |  |
| COc1cc2cc(C#N)ccc2c(OC)c1Oc1cc(NCCCOC(C)C)nc(Nc2ccc(C#N)cc2)n1 | > 5380 | >23202 | 2.07 | 2.51 | > 1000 | 57 | > 125 | 29 | 550 | 48 | 1 | 33 | 58 | 13 | > 1 | 320 | 43 | 1230 | 3 |  |
| COc1cc2cc(C#N)ccc2c(OC)c1Oc1cc(NC2CCCCC2)nc(Nc2ccc(C#N)cc2)n1 | > 2290 | >9533 | 97.9 | 50.3 | > 1000 | 570 | > 125 | 379 | 1270 | 933 | 2 | 130 | 479 | 12 |  | 440 | 100 | 39800 | 1 | IC50 [15]: > 1 mM |
| COc1cc2cc(C#N)ccc2c(OC)c1Oc1cc(NC2CCOC2)nc(Nc2ccc(C#N)cc2)n1 (stereo not drawn) | > 19000 | 156 | 0.64 | 0.56 | 2.01 | 47 | > 125 | 19 | 85 | 49 | 2 | 28 | 43 | 7 | > 1 | 180 | 13 | 230 | 1 |  |
| COc1cc2cc(C#N)ccc2c(OC)c1Oc1cc(NC2CC2)nc(Nc2ccc(C#N)cc2)n1 | > 12700 | 468 | 1.28 |  | 9.59 | 61 | > 125 | 29 | 190 | 63 | 3 | 38 | 45 | 9 | > 1 | 80 | 20 | 590 | 2 | IC50 [4]: 910 nM |
| COc1cc2cc(C#N)ccc2c(OC)c1Oc1cc(NCC(F)(F)F)nc(Nc2ccc(C#N)cc2)n1 | > 6820 | 168 | 2.52 | 1.8 | 5.91 |  | > 125 | 14 | 360 | 71 | 2 | 40 | 51 | 10 | 0.186 | 140 | 35 | 490 | 1 | IC50 [6]: 73 nM |
| COc1cc2cc(C#N)ccc2c(OC)c1Oc1cc(NCC(C)(C)C)nc(Nc2ccc(C#N)cc2)n1 | > 2880 | >11723 | 1000 | 112 | > 1000 | 310 | > 125 | 103 | 2380 | >11723 | 4 | 140 | 1313 | 28 | > 1 | 510 | 85 | 8790 | 2 |  |

From ChEMBL document CHEMBL5036347, “Design of the naphthyl-diarylpyrimidines as potent non-nucleoside reverse transcriptase inhibitors (NNRTIs) via structure-based extension into the entrance channel” (Eur J Med Chem, 2021)
